Reference: patent EP4467141A1, “PYRAZOLO-QUINOLINES AS SELECTIVE INHIBITORS OF GENOTOXIC STRESS-INDUCED IKK/NF- KB PATHWAYS FOR CANCER THERAPY” (Max-Delbrück-Centrum für Molekulare Medizin in der …, priority 2023, dated 2024)

What was measured:
Assay in all cases: Kinase panel study
Format in all cases: biochemical
Settings in all cases: read-out: Percentage of inhibition; for inhibition at 1 µM: 1000nM; for inhibition at 10 µM: 10000nM
CSNK2A1 (CK2 alpha 1) = target: T1, CSNK2A1 (CK2 alpha 1) (Homo sapiens, UniProt P68400)
T1 construct: purchased Thermo Fisher Scientific
Procedure, shortened: (§1)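 Readout is percentage kinase inhibition. Testing used 1 µM or 10 µM compound in externally run ZLyte/Adapta in vitro assays, and IC50 values were derived within the same panel.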

FES (FPS) = target: T2, FES (FPS) (Homo sapiens, UniProt P07332)
T2 construct: purchased Thermo Fisher Scientific
Procedure, shortened: as §1

MAPK1 (ERK2) = target: T3, MAPK1 (ERK2) (Homo sapiens, UniProt P28482)
T3 construct: purchased Thermo Fisher Scientific
Procedure, shortened: as §1

MET M1250T = target: T4, MET M1250T (Homo sapiens, UniProt P08581, M1250T)
T4 construct: purchased Thermo Fisher Scientific
Procedure, shortened: as §1

PRKX = target: T5, PRKX (Homo sapiens, UniProt P51817)
T5 construct: purchased Thermo Fisher Scientific
T5 sequence (P51817 1-358): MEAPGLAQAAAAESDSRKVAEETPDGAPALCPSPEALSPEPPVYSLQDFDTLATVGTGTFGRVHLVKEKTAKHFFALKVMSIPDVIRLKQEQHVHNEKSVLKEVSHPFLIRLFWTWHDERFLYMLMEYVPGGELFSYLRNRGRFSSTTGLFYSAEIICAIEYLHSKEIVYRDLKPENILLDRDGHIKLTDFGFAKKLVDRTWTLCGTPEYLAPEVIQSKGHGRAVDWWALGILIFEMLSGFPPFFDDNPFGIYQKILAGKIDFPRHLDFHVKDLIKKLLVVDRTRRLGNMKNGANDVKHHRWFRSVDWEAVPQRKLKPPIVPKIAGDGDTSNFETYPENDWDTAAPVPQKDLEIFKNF
Procedure, shortened: as §1

RPS6KA3 (RSK2) = target: T6, RPS6KA3 (RSK2) (Homo sapiens, UniProt P51812)
T6 construct: purchased Thermo Fisher Scientific
Procedure, shortened: as §1

SGK2 = target: T7, SGK2 (Homo sapiens, UniProt Q9HBY8)
T7 construct: purchased Thermo Fisher Scientific
T7 sequence (Q9HBY8 1-367): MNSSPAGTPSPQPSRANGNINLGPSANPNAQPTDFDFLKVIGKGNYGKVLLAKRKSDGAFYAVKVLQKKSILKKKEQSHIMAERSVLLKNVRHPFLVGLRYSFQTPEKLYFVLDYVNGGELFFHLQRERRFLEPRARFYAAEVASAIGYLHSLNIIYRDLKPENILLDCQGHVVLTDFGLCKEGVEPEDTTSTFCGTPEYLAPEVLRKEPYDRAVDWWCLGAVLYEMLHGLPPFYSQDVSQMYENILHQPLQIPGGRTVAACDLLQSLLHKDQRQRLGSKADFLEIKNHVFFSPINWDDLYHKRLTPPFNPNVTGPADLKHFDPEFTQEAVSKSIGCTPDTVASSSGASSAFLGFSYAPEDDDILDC
Procedure, shortened: as §1

TYRO3 (RSE) = target: T8, TYRO3 (RSE) (Homo sapiens, UniProt Q06418)
T8 construct: purchased Thermo Fisher Scientific
T8 sequence (Q06418 41-890): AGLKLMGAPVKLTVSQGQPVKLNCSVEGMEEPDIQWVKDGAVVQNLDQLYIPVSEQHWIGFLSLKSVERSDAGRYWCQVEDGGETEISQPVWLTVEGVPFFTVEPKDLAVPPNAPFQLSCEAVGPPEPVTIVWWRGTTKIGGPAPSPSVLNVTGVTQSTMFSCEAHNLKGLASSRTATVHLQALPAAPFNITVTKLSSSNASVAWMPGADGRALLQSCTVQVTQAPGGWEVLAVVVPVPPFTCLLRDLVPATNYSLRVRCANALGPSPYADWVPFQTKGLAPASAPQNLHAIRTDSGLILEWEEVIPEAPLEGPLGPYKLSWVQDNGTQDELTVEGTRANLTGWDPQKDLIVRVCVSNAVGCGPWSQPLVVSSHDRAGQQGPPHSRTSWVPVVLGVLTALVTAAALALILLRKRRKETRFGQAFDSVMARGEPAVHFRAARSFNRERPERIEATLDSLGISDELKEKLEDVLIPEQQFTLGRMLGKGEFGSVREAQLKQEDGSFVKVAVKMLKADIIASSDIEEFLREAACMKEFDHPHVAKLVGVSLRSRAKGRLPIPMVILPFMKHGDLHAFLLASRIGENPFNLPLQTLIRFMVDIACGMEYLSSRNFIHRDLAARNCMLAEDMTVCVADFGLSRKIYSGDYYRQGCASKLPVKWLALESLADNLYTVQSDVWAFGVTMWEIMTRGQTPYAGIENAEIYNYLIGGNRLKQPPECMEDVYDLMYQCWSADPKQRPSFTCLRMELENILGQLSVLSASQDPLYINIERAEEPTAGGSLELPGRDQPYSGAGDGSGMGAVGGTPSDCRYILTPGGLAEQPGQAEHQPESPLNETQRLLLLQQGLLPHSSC
Procedure, shortened: as §1

T1 sequence (P68400 whole entry): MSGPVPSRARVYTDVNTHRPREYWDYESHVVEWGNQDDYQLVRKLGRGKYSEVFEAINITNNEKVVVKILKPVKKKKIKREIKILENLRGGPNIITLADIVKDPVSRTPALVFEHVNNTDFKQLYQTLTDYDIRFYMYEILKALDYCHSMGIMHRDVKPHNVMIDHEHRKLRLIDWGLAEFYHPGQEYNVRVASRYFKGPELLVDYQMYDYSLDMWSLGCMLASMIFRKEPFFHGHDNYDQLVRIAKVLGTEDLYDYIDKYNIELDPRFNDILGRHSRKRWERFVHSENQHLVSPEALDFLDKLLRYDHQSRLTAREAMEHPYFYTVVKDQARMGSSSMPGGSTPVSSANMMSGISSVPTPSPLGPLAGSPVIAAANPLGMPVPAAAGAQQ
T6 sequence (P51812 whole entry): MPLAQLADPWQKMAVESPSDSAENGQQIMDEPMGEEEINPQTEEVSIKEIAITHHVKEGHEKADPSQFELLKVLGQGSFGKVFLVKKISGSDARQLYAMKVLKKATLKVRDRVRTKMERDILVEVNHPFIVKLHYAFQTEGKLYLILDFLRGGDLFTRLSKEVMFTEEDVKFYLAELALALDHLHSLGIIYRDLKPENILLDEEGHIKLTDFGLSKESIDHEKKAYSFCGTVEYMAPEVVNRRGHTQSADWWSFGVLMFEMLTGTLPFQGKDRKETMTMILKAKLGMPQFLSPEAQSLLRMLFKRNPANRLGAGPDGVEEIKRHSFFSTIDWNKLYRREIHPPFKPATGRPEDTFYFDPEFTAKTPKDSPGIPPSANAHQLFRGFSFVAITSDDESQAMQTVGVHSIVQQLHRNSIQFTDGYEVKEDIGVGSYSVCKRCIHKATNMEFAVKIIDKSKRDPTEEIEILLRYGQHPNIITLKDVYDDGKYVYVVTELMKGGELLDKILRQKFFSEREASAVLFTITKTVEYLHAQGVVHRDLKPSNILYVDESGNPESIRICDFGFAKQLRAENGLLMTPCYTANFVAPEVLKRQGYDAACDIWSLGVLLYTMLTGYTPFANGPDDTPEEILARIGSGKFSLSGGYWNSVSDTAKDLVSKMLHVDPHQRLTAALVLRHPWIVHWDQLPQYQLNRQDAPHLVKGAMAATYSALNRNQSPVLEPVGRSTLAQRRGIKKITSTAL
T2 sequence (P07332 whole entry): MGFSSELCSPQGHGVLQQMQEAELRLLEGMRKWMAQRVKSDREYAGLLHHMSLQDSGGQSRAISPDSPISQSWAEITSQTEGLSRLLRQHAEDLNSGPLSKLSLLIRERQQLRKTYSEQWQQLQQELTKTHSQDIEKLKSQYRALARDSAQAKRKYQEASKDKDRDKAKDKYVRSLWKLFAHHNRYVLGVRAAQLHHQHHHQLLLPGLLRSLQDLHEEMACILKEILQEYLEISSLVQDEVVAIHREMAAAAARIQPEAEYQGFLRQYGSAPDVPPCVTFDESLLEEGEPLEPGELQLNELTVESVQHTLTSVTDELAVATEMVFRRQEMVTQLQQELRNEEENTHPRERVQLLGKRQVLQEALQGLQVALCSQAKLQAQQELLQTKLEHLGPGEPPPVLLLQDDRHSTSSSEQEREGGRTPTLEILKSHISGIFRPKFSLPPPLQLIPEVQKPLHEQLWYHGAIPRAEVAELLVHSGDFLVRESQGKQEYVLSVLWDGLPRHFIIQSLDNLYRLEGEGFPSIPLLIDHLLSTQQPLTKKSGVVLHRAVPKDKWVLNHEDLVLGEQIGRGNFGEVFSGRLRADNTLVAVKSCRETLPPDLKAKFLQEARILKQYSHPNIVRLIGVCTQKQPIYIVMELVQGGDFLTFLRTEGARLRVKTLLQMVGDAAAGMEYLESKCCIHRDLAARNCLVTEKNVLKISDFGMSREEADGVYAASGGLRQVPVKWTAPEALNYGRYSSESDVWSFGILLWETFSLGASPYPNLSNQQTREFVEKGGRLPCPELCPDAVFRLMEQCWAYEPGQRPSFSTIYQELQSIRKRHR
T3 sequence (P28482 whole entry): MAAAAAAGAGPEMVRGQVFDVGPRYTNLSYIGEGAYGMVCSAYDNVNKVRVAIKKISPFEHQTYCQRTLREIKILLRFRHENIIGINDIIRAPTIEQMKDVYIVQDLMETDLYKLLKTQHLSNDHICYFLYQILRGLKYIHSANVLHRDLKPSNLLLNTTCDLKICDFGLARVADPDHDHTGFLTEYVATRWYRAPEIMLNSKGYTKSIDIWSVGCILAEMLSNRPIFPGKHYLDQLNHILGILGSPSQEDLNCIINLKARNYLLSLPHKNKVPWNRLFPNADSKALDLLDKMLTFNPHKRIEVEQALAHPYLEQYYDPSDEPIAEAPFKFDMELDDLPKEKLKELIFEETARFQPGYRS
T4 sequence (P08581 25-1390 M1250T): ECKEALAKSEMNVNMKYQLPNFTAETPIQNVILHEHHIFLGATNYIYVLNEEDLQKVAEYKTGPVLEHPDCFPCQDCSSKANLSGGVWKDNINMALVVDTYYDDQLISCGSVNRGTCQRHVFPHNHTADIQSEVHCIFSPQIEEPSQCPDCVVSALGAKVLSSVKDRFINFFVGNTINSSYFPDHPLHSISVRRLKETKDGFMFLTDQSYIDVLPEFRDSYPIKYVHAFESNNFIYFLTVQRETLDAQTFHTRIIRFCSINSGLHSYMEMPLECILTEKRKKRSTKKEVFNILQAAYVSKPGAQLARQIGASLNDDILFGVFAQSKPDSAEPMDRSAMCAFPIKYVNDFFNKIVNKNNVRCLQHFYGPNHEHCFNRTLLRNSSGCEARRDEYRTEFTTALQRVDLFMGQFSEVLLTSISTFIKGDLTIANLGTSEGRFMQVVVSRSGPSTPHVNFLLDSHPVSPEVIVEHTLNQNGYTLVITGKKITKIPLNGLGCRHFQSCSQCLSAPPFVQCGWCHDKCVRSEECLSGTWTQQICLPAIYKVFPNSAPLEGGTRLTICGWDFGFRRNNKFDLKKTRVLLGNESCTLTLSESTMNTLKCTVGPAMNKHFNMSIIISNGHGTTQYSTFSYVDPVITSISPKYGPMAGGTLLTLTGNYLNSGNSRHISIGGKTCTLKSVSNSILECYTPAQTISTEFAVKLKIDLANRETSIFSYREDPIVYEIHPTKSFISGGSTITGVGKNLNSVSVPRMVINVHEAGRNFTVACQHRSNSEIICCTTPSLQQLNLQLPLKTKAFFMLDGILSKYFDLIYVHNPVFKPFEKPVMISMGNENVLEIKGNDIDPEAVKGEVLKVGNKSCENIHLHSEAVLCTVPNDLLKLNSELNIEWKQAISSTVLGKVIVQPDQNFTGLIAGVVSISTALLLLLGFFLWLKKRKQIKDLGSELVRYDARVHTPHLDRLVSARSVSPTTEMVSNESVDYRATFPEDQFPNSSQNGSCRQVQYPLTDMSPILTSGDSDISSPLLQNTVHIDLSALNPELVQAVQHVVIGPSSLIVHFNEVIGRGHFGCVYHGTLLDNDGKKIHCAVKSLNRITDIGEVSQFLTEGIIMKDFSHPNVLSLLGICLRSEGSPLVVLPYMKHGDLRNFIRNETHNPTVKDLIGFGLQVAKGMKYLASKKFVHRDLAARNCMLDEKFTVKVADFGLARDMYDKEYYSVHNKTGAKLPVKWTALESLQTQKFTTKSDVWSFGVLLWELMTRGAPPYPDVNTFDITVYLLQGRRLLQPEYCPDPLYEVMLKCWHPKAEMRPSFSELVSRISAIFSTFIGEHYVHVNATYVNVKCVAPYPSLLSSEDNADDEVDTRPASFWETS

Row | SMILES | inhibition at 1 µM (CSNK2A1 (CK2 alpha 1)) [%] | inhibition at 10 µM (CSNK2A1 (CK2 alpha 1)) [%] | inhibition at 1 µM (FES (FPS)) [%] | inhibition at 10 µM (FES (FPS)) [%] | inhibition at 1 µM (MAPK1 (ERK2)) [%] | inhibition at 10 µM (MAPK1 (ERK2)) [%] | inhibition at 1 µM (MET M1250T) [%] | inhibition at 10 µM (MET M1250T) [%] | inhibition at 1 µM (PRKX) [%] | inhibition at 10 µM (PRKX) [%] | inhibition at 1 µM (RPS6KA3 (RSK2)) [%] | inhibition at 10 µM (RPS6KA3 (RSK2)) [%] | inhibition at 1 µM (SGK2) [%] | inhibition at 10 µM (SGK2) [%] | inhibition at 1 µM (TYRO3 (RSE)) [%] | inhibition at 10 µM (TYRO3 (RSE)) [%]
1 | COc1ccc2c(c1OC)c(=O)n1c3ccc(O)cc3c3ccnc2c31 [MW01, 5-Hydroxy-10,11-dimethoxy-9H-benzo[c]indolo[3,2,1-ij][1,5]naphthyridin-9-one] | 9 | 18 | 0 | 15 | 4 | 9 | 19 | 42 | 22 | 16 | 5 | 10 | 6 | 14 | 11 | 29
2 | COc1ccc2cc3c(N)nn(C(=O)c4cccc(N(C)C)c4)c3nc2c1 [MW05, (3-Amino-7-methoxypyrazolo[3,4-b]quinolin-1-yl)-[3-(dimethylamino)phenyl]methanone] | 9 | 5 | 1 | -1 | 5 | 7 | 1 | -15 | 8 | -2 | 3 | 2 | -3 | -11 | 7 | 2
